Activity calls are given as the source filed them. No cut-off for these calls is given here.
Legend:
Type in all cases: functional, organism-based
Mus musculus [1] = assay: Protection against tunicamycin-induced liver injury-mediated hepatic metabolic disorders in C57BL/6 mouse assessed as TC level in liver at 75 to 300 mg/kg, ig administered for 3 days and on day 3 administered with tunicamycin after 2 hrs and measured after 24 hrs; conditions: dose 75-300 mg/kg, time 4.0 day
Mus musculus [2] = assay: Protection against tunicamycin-induced liver injury-mediated hepatic metabolic disorders in C57BL/6 mouse assessed as increase in PPARgamma2 gene expression at 75 to 300 mg/kg, ig administered for 3 days and on day 3 administered with tunicamycin after 2 hrs and measured after 24 hrs by RT-qPCR analysis; conditions: dose 75-300 mg/kg, time 4.0 day
Mus musculus [3] = assay: Protection against tunicamycin-induced ER stress in C57BL/6 mouse assessed as downregulation of GRP78 protein expression in liver at 150 mg/kg, ig administered for 3 days and on day 3 administered with tunicamycin after 2 hrs and measured after 24 hrs by western blot analysis; conditions: time 4.0 day
Mus musculus [4] = assay: Protection against tunicamycin-induced UPR response in C57BL/6 mouse assessed as downregulation of IRE1alpha protein expression in liver at 150 mg/kg, ig administered for 3 days and on day 3 administered with tunicamycin after 2 hrs and measured after 24 hrs by western blot analysis; conditions: time 4.0 day
Mus musculus [5] = assay: Protection against tunicamycin-induced UPR response in C57BL/6 mouse assessed as downregulation of ATF6 gene expression in liver at 150 mg/kg, ig administered for 3 days and on day 3 administered with tunicamycin after 2 hrs and measured after 24 hrs by RT-qPCR analysis; conditions: time 4.0 day
Mus musculus [6] = assay: Protection against tunicamycin-induced liver injury-mediated hepatic metabolic disorders in C57BL/6 mouse assessed as inhibition of lipid metabolic disorders by measuring decrease in liver TG level at 75 to 300 mg/kg, ig administered for 3 days and on day 3 administered with tunicamycin after 2 hrs and measured after 24 hrs; conditions: dose 75-300 mg/kg, time 4.0 day
Mus musculus [7] = assay: Protection against tunicamycin-induced liver injury-mediated hepatic metabolic disorders in C57BL/6 mouse assessed as inhibition of lipid metabolic disorders by measuring increase in plasma TC level at 75 to 300 mg/kg, ig administered for 3 days and on day 3 administered with tunicamycin after 2 hrs and measured after 24 hrs; conditions: dose 75-300 mg/kg, time 4.0 day
Mus musculus [8] = assay: Protection against tunicamycin-induced ER stress-mediated liver injury in C57BL/6 mouse assessed as normal liver histology at 75 to 300 mg/kg, ig administered for 3 days and on day 3 administered with tunicamycin after 2 hrs and measured after 24 hrs by Hematoxylin-eosin staining based microscopic analysis; conditions: dose 75-300 mg/kg, time 4.0 day
Mus musculus [9] = assay: Protection against tunicamycin-induced liver injury-mediated hepatic metabolic disorders in C57BL/6 mouse assessed as inhibition of lipid metabolic disorders by measuring increase in plasma VLDL-C level at 75 to 300 mg/kg, ig administered for 3 days and on day 3 administered with tunicamycin after 2 hrs and measured after 24 hrs by ELISA; conditions: dose 75-300 mg/kg, time 4.0 day
Mus musculus [10] = assay: Protection against tunicamycin-induced liver injury-mediated hepatic metabolic disorders in C57BL/6 mouse assessed as inhibition of lipid metabolic disorders by measuring increase in plasma HDL-C level at 75 to 300 mg/kg, ig administered for 3 days and on day 3 administered with tunicamycin after 2 hrs and measured after 24 hrs; conditions: dose 75-300 mg/kg, time 4.0 day
Mus musculus [11] = assay: Protection against tunicamycin-induced ER stress in C57BL/6 mouse assessed as downregulation of CHOP protein expression in liver at 150 mg/kg, ig administered for 3 days and on day 3 administered with tunicamycin after 2 hrs and measured after 24 hrs by western blot analysis; conditions: time 4.0 day
Mus musculus [12] = assay: Protection against tunicamycin-induced ER stress-mediated liver injury in C57BL/6 mouse assessed as normal liver morphology at 75 to 300 mg/kg, ig administered for 3 days and on day 3 administered with tunicamycin after 2 hrs and measured after 24 hrs; conditions: dose 75-300 mg/kg, time 4.0 day
Mus musculus [13] = assay: Protection against tunicamycin-induced liver injury-mediated hepatic metabolic disorders in C57BL/6 mouse assessed as inhibition of lipid metabolic disorders by measuring increase in plasma LDL-C level at 75 to 300 mg/kg, ig administered for 3 days and on day 3 administered with tunicamycin after 2 hrs and measured after 24 hrs; conditions: dose 75-300 mg/kg, time 4.0 day
Mus musculus [14] = assay: Protection against tunicamycin-induced gut microbiota dysbiosis in C57BL/6 mouse assessed as increase in proteobacteria abundance in colon at 75 to 300 mg/kg, ig administered for 3 days and on day 3 administered with tunicamycin after 2 hrs and measured after 24 hrs; conditions: dose 75-300 mg/kg, time 4.0 day
Mus musculus [15] = assay: Protection against tunicamycin-induced liver injury-mediated hepatic metabolic disorders in C57BL/6 mouse assessed as increase in FXR gene expression at 75 to 300 mg/kg, ig administered for 3 days and on day 3 administered with tunicamycin after 2 hrs and measured after 24 hrs by RT-qPCR analysis; conditions: dose 75-300 mg/kg, time 4.0 day
Mus musculus [16] = assay: Protection against tunicamycin-induced gut microbiota dysbiosis in C57BL/6 mouse assessed as decrease in ratio of Prevotellaceae-to-Erysipelotrichaceae in colon at 75 to 300 mg/kg, ig administered for 3 days and on day 3 administered with tunicamycin after 2 hrs and measured after 24 hrs; conditions: dose 75-300 mg/kg, time 4.0 day
Mus musculus [17] = assay: Protection against tunicamycin-induced gut microbiota dysbiosis in C57BL/6 mouse assessed as increase in Erysipelotrichaceae- abundance in colon at 75 to 300 mg/kg, ig administered for 3 days and on day 3 administered with tunicamycin after 2 hrs and measured after 24 hrs; conditions: dose 75-300 mg/kg, time 4.0 day
Mus musculus [18] = assay: Protection against tunicamycin-induced ER stress-mediated liver injury in C57BL/6 mouse assessed as plasma ALT level at 75 to 300 mg/kg, ig administered for 3 days and on day 3 administered with tunicamycin after 2 hrs and measured after 24 hrs; conditions: dose 75-300 mg/kg, time 4.0 day
Mus musculus [19] = assay: Protection against tunicamycin-induced ER stress-mediated liver injury in C57BL/6 mouse assessed as plasma AST level at 75 to 300 mg/kg, ig administered for 3 days and on day 3 administered with tunicamycin after 2 hrs and measured after 24 hrs; conditions: dose 75-300 mg/kg, time 4.0 day
Mus musculus [20] = assay: Protection against tunicamycin-induced liver injury-mediated hepatic metabolic disorders in C57BL/6 mouse assessed as reduction in FGF21 level in serum at 75 to 300 mg/kg, ig administered for 3 days and on day 3 administered with tunicamycin after 2 hrs and measured after 24 hrs by ELISA; conditions: dose 75-300 mg/kg, time 4.0 day
Mus musculus [21] = assay: Protection against tunicamycin-induced UPR response in C57BL/6 mouse assessed as downregulation of phosphorylated eIF2alpha protein expression in liver at 150 mg/kg, ig administered for 3 days and on day 3 administered with tunicamycin after 2 hrs and measured after 24 hrs by western blot analysis; conditions: time 4.0 day
Mus musculus [22] = assay: Protection against tunicamycin-induced gut microbiota dysbiosis in C57BL/6 mouse assessed as decrease in prevotellaceae-abundance in colon at 75 to 300 mg/kg, ig administered for 3 days and on day 3 administered with tunicamycin after 2 hrs and measured after 24 hrs; conditions: dose 75-300 mg/kg, time 4.0 day
Mus musculus [23] = assay: Protection against tunicamycin-induced liver injury-mediated hepatic metabolic disorders in C57BL/6 mouse assessed as increase in CD36 gene expression at 150 mg/kg, ig administered for 3 days and on day 3 administered with tunicamycin after 2 hrs and measured after 24 hrs by RT-qPCR analysis; conditions: time 4.0 day
Mus musculus [24] = assay: Protection against tunicamycin-induced liver injury-mediated hepatic metabolic disorders in C57BL/6 mouse assessed as increase in PPARgamma1 gene expression at 75 to 300 mg/kg, ig administered for 3 days and on day 3 administered with tunicamycin after 2 hrs and measured after 24 hrs by RT-qPCR analysis; conditions: dose 75-300 mg/kg, time 4.0 day
Mus musculus [25] = assay: Protection against tunicamycin-induced UPR response in C57BL/6 mouse assessed as downregulation of PERK gene expression in liver at 150 mg/kg, ig administered for 3 days and on day 3 administered with tunicamycin after 2 hrs and measured after 24 hrs by RT-qPCR analysis; conditions: time 4.0 day
Mus musculus [26] = assay: Protection against tunicamycin-induced gut microbiota dysbiosis in C57BL/6 mouse assessed as increase in Epsilonbacteraeota-abundance in colon at 75 to 300 mg/kg, ig administered for 3 days and on day 3 administered with tunicamycin after 2 hrs and measured after 24 hrs; conditions: dose 75-300 mg/kg, time 4.0 day
Mus musculus [27] = assay: Effect on Akt protein expression in liver of tunicamycin-induced liver injury C57BL/6 mouse model at 75 to 300 mg/kg, ig administered for 3 days and on day 3 administered with tunicamycin after 2 hrs and measured after 24 hrs in presence of insulin by western blot analysis; conditions: dose 75-300 mg/kg, time 4.0 day
Mus musculus [28] = assay: Protection against tunicamycin-induced ER stress in C57BL/6 mouse assessed as downregulation of CHOP gene expression in liver at 150 mg/kg, ig administered for 3 days and on day 3 administered with tunicamycin after 2 hrs and measured after 24 hrs by RT-qPCR analysis; conditions: time 4.0 day
Mus musculus [29] = assay: Protection against tunicamycin-induced liver injury-mediated hepatic metabolic disorders in C57BL/6 mouse assessed as increase in ACCalpha1 gene expression at 75 to 300 mg/kg, ig administered for 3 days and on day 3 administered with tunicamycin after 2 hrs and measured after 24 hrs by RT-qPCR analysis; conditions: dose 75-300 mg/kg, time 4.0 day
Mus musculus [30] = assay: Protection against tunicamycin-induced liver injury-mediated hepatic metabolic disorders in C57BL/6 mouse assessed as reduction in TRB3 gene expression in liver at 150 mg/kg, ig administered for 3 days and on day 3 administered with tunicamycin after 2 hrs and measured after 24 hrs by RT-qPCR analysis; conditions: time 4.0 day
Mus musculus [31] = assay: Protection against tunicamycin-induced liver injury-mediated hepatic metabolic disorders in C57BL/6 mouse assessed as reduction in FGF21 gene expression in liver at 75 to 300 mg/kg, ig administered for 3 days and on day 3 administered with tunicamycin after 2 hrs and measured after 24 hrs by RT-qPCR analysis; conditions: dose 75-300 mg/kg, time 4.0 day
Mus musculus [32] = assay: Protection against tunicamycin-induced ER stress in C57BL/6 mouse assessed as downregulation of GRP78 gene expression in liver at 150 mg/kg, ig administered for 3 days and on day 3 administered with tunicamycin after 2 hrs and measured after 24 hrs by RT-qPCR analysis; conditions: time 4.0 day
Mus musculus [33] = assay: Protection against tunicamycin-induced liver injury-mediated hepatic metabolic disorders in C57BL/6 mouse assessed as increase in SCD1 gene expression at 75 to 300 mg/kg, ig administered for 3 days and on day 3 administered with tunicamycin after 2 hrs and measured after 24 hrs by RT-qPCR analysis; conditions: dose 75-300 mg/kg, time 4.0 day
Mus musculus [34] = assay: Protection against tunicamycin-induced gut microbiota dysbiosis in C57BL/6 mouse assessed as increase in Pediococcus-pentosaceus abundance in colon at 150 mg/kg, ig administered for 3 days and on day 3 administered with tunicamycin after 2 hrs and measured after 24 hrs by LEfse analysis; conditions: time 4.0 day
Mus musculus [35] = assay: Protection against tunicamycin-induced UPR response in C57BL/6 mouse assessed as downregulation of PERK protein expression in liver at 150 mg/kg, ig administered for 3 days and on day 3 administered with tunicamycin after 2 hrs and measured after 24 hrs by western blot analysis; conditions: time 4.0 day
Mus musculus [36] = assay: Reduction in plasma albumin level in tunicamycin-induced liver injury C57BL/6 mouse model at 75 to 300 mg/kg, ig administered for 3 days and on day 3 administered with tunicamycin after 2 hrs and measured after 24 hrs; conditions: dose 75-300 mg/kg, time 4.0 day
Mus musculus [37] = assay: Protection against tunicamycin-induced liver injury-mediated hepatic metabolic disorders in C57BL/6 mouse assessed as increase in CYP7A1 gene expression at 75 to 300 mg/kg, ig administered for 3 days and on day 3 administered with tunicamycin after 2 hrs and measured after 24 hrs by RT-qPCR analysis; conditions: dose 75-300 mg/kg, time 4.0 day
Mus musculus [38] = assay: Protection against tunicamycin-induced liver injury-mediated hepatic metabolic disorders in C57BL/6 mouse assessed as inhibition of lipid metabolic disorders by measuring increase in plasma TG level at 75 to 300 mg/kg, ig administered for 3 days and on day 3 administered with tunicamycin after 2 hrs and measured after 24 hrs; conditions: dose 75-300 mg/kg, time 4.0 day
Mus musculus [39] = assay: Protection against tunicamycin-induced liver injury-mediated hepatic metabolic disorders in C57BL/6 mouse assessed as HDL-C level in liver at 75 to 300 mg/kg, ig administered for 3 days and on day 3 administered with tunicamycin after 2 hrs and measured after 24 hrs; conditions: dose 75-300 mg/kg, time 4.0 day
Mus musculus [40] = assay: Protection against tunicamycin-induced liver injury-mediated hepatic metabolic disorders in C57BL/6 mouse assessed as LDL-C level in liver at 75 to 300 mg/kg, ig administered for 3 days and on day 3 administered with tunicamycin after 2 hrs and measured after 24 hrs; conditions: dose 75-300 mg/kg, time 4.0 day
Mus musculus [41] = assay: Protection against tunicamycin-induced liver injury-mediated hepatic metabolic disorders in C57BL/6 mouse assessed as increase in phosphorylated Akt level in liver at 150 mg/kg, ig administered for 3 days and on day 3 administered with tunicamycin after 2 hrs and measured after 24 hrs in presence of insulin by western blot analysis; conditions: time 4.0 day

## COc1ccc2cc3[n+](cc2c1OC)CCc1cc2c(cc1-3)OCO2
Mus musculus [1]
  Activity: inactive
Mus musculus [2]
  Activity: inactive
Mus musculus [3]
  Activity: Active
Mus musculus [4]
  Activity: Active
Mus musculus [5]
  Activity: Active
Mus musculus [6]
  Activity: Active
Mus musculus [7]
  Activity: Active
Mus musculus [8]
  Activity: Active
Mus musculus [9]
  Activity: Active
Mus musculus [10]
  Activity: Active
Mus musculus [11]
  Activity: Active
Mus musculus [12]
  Activity: Active
Mus musculus [13]
  Activity: Active
Mus musculus [14]
  Activity: Active
Mus musculus [15]
  Activity: inactive
Mus musculus [16]
  Activity: Active
Mus musculus [17]
  Activity: Active
Mus musculus [18]
  Activity: inactive
Mus musculus [19]
  Activity: inactive
Mus musculus [20]
  Activity: Active
Mus musculus [21]
  Activity: Active
Mus musculus [22]
  Activity: Active
Mus musculus [23]
  Activity: Active
Mus musculus [24]
  Activity: inactive
Mus musculus [25]
  Activity: Active
Mus musculus [26]
  Activity: Active
Mus musculus [27]
  Activity: inactive
Mus musculus [28]
  Activity: Active
Mus musculus [29]
  Activity: inactive
Mus musculus [30]
  Activity: Active
Mus musculus [31]
  Activity: Active
Mus musculus [32]
  Activity: Active
Mus musculus [33]
  Activity: inactive
Mus musculus [34]
  Activity: Active
Mus musculus [35]
  Activity: Active
Mus musculus [36]
  inhibition: Active
Mus musculus [37]
  Activity: inactive
Mus musculus [38]
  Activity: Active
Mus musculus [39]
  Activity: inactive
Mus musculus [40]
  Activity: inactive
Mus musculus [41]
  Activity: Active
